These are literature values, as cited in patent US20200323813A1, “TREATMENT OF VIRAL HEMORRHAGIC FEVERS WITH COX-2 SELECTIVE NON-STEROIDAL ANTI-INFLAMMATORY DRUGS” (Tremeau Pharmaceuticals, Inc., priority 2019, published 2020).

The structures appear in SMILES notation.

For data set [1] the following is noted: versus non-selective NSAIDs.
The conditions of data set [2]: oral once daily product.
The subject of data set [3] is platelet aggregation or bleeding time. Conditions: doses up to 375 mg/day.

Take `CS(=O)(=O)c1ccc(C2=C(c3ccccc3)C(=O)OC2)cc1` [Rofecoxib, 4-[4-(methylsulfonyl)phenyl]-3-phenyl-2(5H)-furanone]: the “GI tolerability and safety events” value in data set [1] was “significant improvements”. Further, in data set [2], the half-live entry is reported as “approximately 17 hours”. Moreover, in data set [3], the “effect on bleeding time” value was “not affect” and the “effect on platelet aggregation” value is “not affect”. Under “acute pain settings”, the “median onset of action” value was 45 min. The “sustained efficacy (duration)” value (single dose) was 24 h. In the data set on COX-2 versus COX-1, the “COX-2 versus COX-1 selectivity” value is recorded as 35 fold.
